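Step 1: Grow cells in 96-well plates. Step 2: Expose to compound for 48 hours at 5 concentrations. Step 3: Interpolate endpoints linearly; if unreached, use highest concentration. At the GI50, growth is halved.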 The source made the active and inactive calls. No stated cut-off is given here; in the data, active = GI50 up to about 1.1 µM and inactive = higher.
Assays:
Experiment in all cases: growth of human tumour cells (NCI), 48 h
HCT-116 = system: HCT-116
SNB-75 = system: SNB-75
UO-31 = system: UO-31
NCI/ADR-RES = system: NCI/ADR-RES
SNB-19 = system: SNB-19
CAKI-1 = system: CAKI-1
SR = system: SR
SK-MEL-28 = system: SK-MEL-28
MDA-MB-435 = system: MDA-MB-435
HCT-15 = system: HCT-15
T47D = system: T47D
SK-OV-3 = system: SK-OV-3
Hs-578T = system: Hs-578T
MDA-N = system: MDA-N
Malme-3M = system: Malme-3M
SW-620 = system: SW-620
IGROV-1 = system: IGROV-1
KM12 = system: KM12
A498 = system: A498
SF-539 = system: SF-539

Compound	GI50 (HCT-116)	GI50 (SNB-75)	GI50 (UO-31)	GI50 (NCI/ADR-RES)	GI50 (SNB-19)	GI50 (CAKI-1)	GI50 (SR)	GI50 (SK-MEL-28)	GI50 (MDA-MB-435)	GI50 (HCT-15) [µM]	GI50 (T47D)	GI50 (SK-OV-3)	GI50 (Hs-578T)	GI50 (MDA-N)	GI50 (Malme-3M)	GI50 (SW-620)	GI50 (IGROV-1)	GI50 (KM12)	GI50 (A498)	GI50 (SF-539)
CCC1(CC)C(=O)NN(C(=O)c2ccccc2)C1=O	> 100 µM (inactive)	49.4 µM (inactive)	> 100 µM (inactive)	> 100 µM (inactive)	> 100 µM (inactive)	> 100 µM (inactive)	> 100 µM (inactive)	> 100 µM (inactive)	> 100 µM (inactive)	> 100	> 100 µM (inactive)	> 100 µM (inactive)	> 100 µM (inactive)	> 100 µM (inactive)	> 100 µM (inactive)	> 100 µM (inactive)	> 100 µM (inactive)	6.49 µM (inactive)	–	–
C#C[C@@]1(O)CCCC2=CC3(CC[C@]21C)SCCS3	> 100 µM (inactive)	–	> 100 µM (inactive)	> 100 µM (inactive)	> 100 µM (inactive)	–	> 100 µM (inactive)	> 100 µM (inactive)	> 100 µM (inactive)	> 100	> 100 µM (inactive)	> 100 µM (inactive)	> 100 µM (inactive)	> 100 µM (inactive)	> 100 µM (inactive)	> 100 µM (inactive)	> 100 µM (inactive)	> 100 µM (inactive)	> 100 µM (inactive)	> 100 µM (inactive)
CCOC(=O)/C=C(/C(=O)OCC)n1ccc(=O)n(Cc2cn(CCCCOC(C)=O)nn2)c1=O	> 100 µM (inactive)	> 100 µM (inactive)	> 100 µM (inactive)	> 100 µM (inactive)	> 100 µM (inactive)	23.3 µM (inactive)	> 100 µM (inactive)	> 100 µM (inactive)	> 100 µM (inactive)	59.4	> 100 µM (inactive)	> 100 µM (inactive)	> 100 µM (inactive)	> 100 µM (inactive)	–	32.7 µM (inactive)	> 100 µM (inactive)	> 100 µM (inactive)	–	> 100 µM (inactive)
C=C(C1=CC(=O)C(C)(C)O1)[C@@H]1CC=C([C@@H]2CC[C@H]3[C@@]2(C)CC[C@H]2C(C)(C)C(=O)[C@H](O)C[C@]32C)[C@H](O)O1	1.63 µM (inactive)	10.6 µM (inactive)	1.53 µM (inactive)	3.98 µM (inactive)	10.2 µM (inactive)	3.89 µM (inactive)	–	4.42 µM (inactive)	2.49 µM (inactive)	2.04	1.44 µM (inactive)	14.6 µM (inactive)	3.27 µM (inactive)	1.67 µM (inactive)	2.35 µM (inactive)	1.66 µM (inactive)	2.18 µM (inactive)	3.86 µM (inactive)	5.16 µM (inactive)	1.34 µM (inactive)
OCCN=C1c2ccccc2C2C(c3ccccc31)C1c3ccccc3C(=NCCO)c3ccccc3C21 (stereo not drawn)	15.5 µM (inactive)	20.4 µM (inactive)	12.5 µM (inactive)	22.2 µM (inactive)	10.7 µM (inactive)	16.3 µM (inactive)	9.48 µM (inactive)	17.5 µM (inactive)	18 µM (inactive)	17.4	21.6 µM (inactive)	22.2 µM (inactive)	12.6 µM (inactive)	15.6 µM (inactive)	32.4 µM (inactive)	26.1 µM (inactive)	15.5 µM (inactive)	17.1 µM (inactive)	–	18 µM (inactive)
Cc1ccc2ccc(O)cc2c1	68.9 µM (inactive)	48.9 µM (inactive)	23 µM (inactive)	24.8 µM (inactive)	> 100 µM (inactive)	38.1 µM (inactive)	–	> 100 µM (inactive)	19 µM (inactive)	35.6	35.3 µM (inactive)	26.9 µM (inactive)	37.9 µM (inactive)	20.1 µM (inactive)	48.2 µM (inactive)	37 µM (inactive)	20.7 µM (inactive)	28.4 µM (inactive)	37.2 µM (inactive)	38.4 µM (inactive)
N#Cc1c(-c2ccc(Cl)cc2Cl)nc2[nH]nc(S)n2c1=O	> 100 µM (inactive)	–	> 100 µM (inactive)	> 100 µM (inactive)	> 100 µM (inactive)	> 100 µM (inactive)	> 100 µM (inactive)	> 100 µM (inactive)	> 100 µM (inactive)	> 100	> 100 µM (inactive)	> 100 µM (inactive)	> 100 µM (inactive)	> 100 µM (inactive)	> 100 µM (inactive)	> 100 µM (inactive)	> 100 µM (inactive)	> 100 µM (inactive)	> 100 µM (inactive)	–
COC(=O)c1c(O)ccc2c1c1c(n2Cc2ccccc2OC)C(=O)c2ccccc2C1=O	5.46 µM (inactive)	–	5.42 µM (inactive)	6.95 µM (inactive)	27.2 µM (inactive)	15.8 µM (inactive)	0.0483 µM (active)	15.8 µM (inactive)	10.3 µM (inactive)	5.16	2.36 µM (inactive)	16.3 µM (inactive)	18 µM (inactive)	13.3 µM (inactive)	21 µM (inactive)	14.2 µM (inactive)	12.6 µM (inactive)	9.75 µM (inactive)	40 µM (inactive)	19.3 µM (inactive)
O=c1[nH]c2cc3cccnc3c(Cl)c2nc1CBr	11.7 µM (inactive)	–	10.5 µM (inactive)	20 µM (inactive)	5.73 µM (inactive)	15.1 µM (inactive)	6.18 µM (inactive)	–	16 µM (inactive)	3.08	5.89 µM (inactive)	26 µM (inactive)	13.1 µM (inactive)	15.6 µM (inactive)	23.1 µM (inactive)	11.4 µM (inactive)	2.92 µM (inactive)	15.5 µM (inactive)	–	11.2 µM (inactive)
Cc1cc2c(c(C(=O)NCC(=O)O)c1)Oc1c(cc(C)cc1C(=O)NCC(=O)O)S2	> 100 µM (inactive)	> 100 µM (inactive)	–	> 100 µM (inactive)	> 100 µM (inactive)	> 100 µM (inactive)	> 100 µM (inactive)	> 100 µM (inactive)	> 100 µM (inactive)	> 100	> 100 µM (inactive)	> 100 µM (inactive)	> 100 µM (inactive)	> 100 µM (inactive)	> 100 µM (inactive)	> 100 µM (inactive)	> 100 µM (inactive)	> 100 µM (inactive)	–	> 100 µM (inactive)
Cn1c(-c2ccc(/N=N/Nc3ccc(-c4n[nH]c(=S)n4C)cc3)cc2)n[nH]c1=S	25.7 µM (inactive)	16 µM (inactive)	2.85 µM (inactive)	> 100 µM (inactive)	17.7 µM (inactive)	–	4.81 µM (inactive)	> 100 µM (inactive)	> 100 µM (inactive)	> 100	1.94 µM (inactive)	20.2 µM (inactive)	32.1 µM (inactive)	> 100 µM (inactive)	> 100 µM (inactive)	> 100 µM (inactive)	10.2 µM (inactive)	–	24.9 µM (inactive)	–
O=C(Cn1c2ccc(Br)cc2c2nc3ccccc3nc21)NC1CCCCC1	> 100 µM (inactive)	36.1 µM (inactive)	> 100 µM (inactive)	> 100 µM (inactive)	> 100 µM (inactive)	> 100 µM (inactive)	–	81.1 µM (inactive)	> 100 µM (inactive)	> 100	60.4 µM (inactive)	> 100 µM (inactive)	43.3 µM (inactive)	> 100 µM (inactive)	> 100 µM (inactive)	> 100 µM (inactive)	> 100 µM (inactive)	> 100 µM (inactive)	> 100 µM (inactive)	–
Clc1cc(-c2ccccc2)nc2ccccc12	32.5 µM (inactive)	28.6 µM (inactive)	32.9 µM (inactive)	33.6 µM (inactive)	88.7 µM (inactive)	33.9 µM (inactive)	–	57.5 µM (inactive)	26.2 µM (inactive)	16	31.3 µM (inactive)	> 100 µM (inactive)	30.1 µM (inactive)	26 µM (inactive)	38 µM (inactive)	43.6 µM (inactive)	15.1 µM (inactive)	28.1 µM (inactive)	33 µM (inactive)	51.4 µM (inactive)
NS(=O)(=O)c1nnc(NS(=O)(=O)c2ccccc2C(=O)O)s1	> 100 µM (inactive)	–	> 100 µM (inactive)	> 100 µM (inactive)	> 100 µM (inactive)	> 100 µM (inactive)	> 100 µM (inactive)	> 100 µM (inactive)	> 100 µM (inactive)	> 100	> 100 µM (inactive)	> 100 µM (inactive)	> 100 µM (inactive)	> 100 µM (inactive)	> 100 µM (inactive)	> 100 µM (inactive)	–	> 100 µM (inactive)	> 100 µM (inactive)	–
O=C1Cc2c([nH]c3ccc(C(=O)O)cc23)-c2ccccc2N1	> 100 µM (inactive)	–	> 100 µM (inactive)	> 100 µM (inactive)	> 100 µM (inactive)	> 100 µM (inactive)	> 100 µM (inactive)	> 100 µM (inactive)	> 100 µM (inactive)	> 100	> 100 µM (inactive)	> 100 µM (inactive)	> 100 µM (inactive)	> 100 µM (inactive)	> 100 µM (inactive)	> 100 µM (inactive)	> 100 µM (inactive)	> 100 µM (inactive)	> 100 µM (inactive)	> 100 µM (inactive)
